Source: patent publication US5348980A, “Enantiomers derived from (S)-2-amino-2-(3,4-dichlorobenzyl)-1-propanol, their use and method of preparation” (Institute de Recherche Jouveinal, priority 1992, dated 1994)
Counter-ions that a name gives are not always drawn.

What was measured:
Format in all cases: in vivo, guinea pigs
[1] = tested on: bronchoconstriction caused by 100 μmol/kg of histamine; experiment: Histamine-induced bronchoconstriction test (Konzett and Rossler), i.v. administration; details: for ED50: Cavia porcellus, iv
Description: (§1) Furthermore, the antihistaminic properties were studied in guinea pigs by the bronchoconstriction test performed according to the method of H. Konzett and R. Rossler (Arch. Exp. Path. Pharmak.--Naunym Schmiedeberg - 195, 71-74, 1940).
(§2) The products of the invention were studied in this test after administration in solution or in suspension via the intravenous and intraduodenal routes, and also in powder form via the intranasal route.
(§3) Irrespective of the administration route, the preparation of the animals employed in the test consists in first anesthetizing male guinea pigs weighing 350 to 400 g by intraperitoneal (i.p.) injection of a sterile and isotonic solution containing 25% (w/v.) of ethyl carbamate on the basis of 6.0 ml/kg, and in then fitting the animals with a tracheal cannula to permit measurement of the pulmonary pressure, a cannula in the right jugular vein for the intravenous (i.v.) administration of solution, and also a cannula in the left carotid artery for qualitative observation of the blood pressure.
(§4) The animals are then connected to a pump (Harvard, ref. 50-1718) in order to maintain an artificial ventilation at a frequency of 60 insufflations per minute; the intratracheal pressure is recorded by an assembly comprising a transducer, an amplifier and a recorder (Gould, respective refs.: PLOEZ, 13-4615-50 and 8188-G4400-06).
(§5) Fitted in this way, the animals are left undisturbed for 10 minutes before the beginning of the actual experiment, which is carried out in different ways according to the administration route envisaged.
(§6) In base form, the test products are dissolved in an isotonic solution (0.9% NaCl) containing 10% (v/v) of Transcutol (R). Dilutions are performed by adding isotonic solution. In salt, in particular hydrochloride, form, the solutions are prepared in the isotonic solution.
(§7) The treatment of the animals consists of a series of administrations of histamine dihydrochloride solution on the basis of 100 μmol/kg before and after treatment with the solution of test product, which is carried out according to the following time schedule:
(§8) t=-20 minutes - histamine (100 μmol/kg)
(§9) t=-10 minutes - ditto control
(§10) t=0 - injection of the test product
(§11) t=+10 minutes - histamine (100 μmol/kg)
(§12) - Calculation and expression of the results:
(§13) For each administration route and for each time of administration of histamine, the activity of the products is expressed as the percentage change in amplitude of bronchoconstriction, calculated relative to that produced by the "control" administration of histamine which precedes the administration of the test product. The % change is calculated according to the formula: [formula] in which: Bc(tx) represents the amplitude of the bronchoconstriction in mm at time x,
(§14) Bo(tx) the amplitude of the base-line respiration in mm at time x,
(§15) Bc(to) and Bo(to) the corresponding amplitudes in mm on receipt of the "control" administration of histamine which precedes that of the test product.
(§16) The inhibitory activity of the test products on histamine-induced bronchoconstriction is expressed at different times of the studies as their ED50, which is the effective dose of product, expressed in μmol/kg, capable of inhibiting 50% of the histamine-induced bronchoconstriction at the time in question.
(§17) Failing this expression, the results are expressed as a % change at the time in question and for a given concentration of the test product. Under these conditions, a positive percentage corresponds to a potentiating effect on bronchoconstriction and, conversely, a negative percentage to an inhibitory effect.
(§18) Statistical analyses of the results were carried out by the Student t test. A value of p<0.05 is considered significant.
(§19) The compounds of the invention described in Examples 1 and 2 were employed in these tests. In addition, as a comparative product for the eutomer of Example 1, the racemic (R,S) compound corresponding to it, and which is described and prepared in Example 7 of U.S. Pat. No. 4,994,617, was employed. […]

[2] = tested on: bronchoconstriction caused by 100 nmol/kg of histamine; experiment: Histamine-induced bronchoconstriction test (Konzett and Rossler), intranasal-powder (In.P.) administration; details: Cavia porcellus, 5 min, t = 5 min, read-out: ED50 at t = 5 min, inhibition of histamine-induced bronchoconstriction
Description: Furthermore, the antihistaminic properties were studied in guinea pigs by the bronchoconstriction test performed according to the method of H. Konzett and R. Rossler (Arch. Exp. Path. Pharmak.--Naunym Schmiedeberg - 195, 71-74, 1940). The products of the invention were studied in this test after administration in solution or in suspension via the intravenous and intraduodenal routes, and also in powder form via the intranasal route. Irrespective of the administration route, the preparation of the animals employed in the test consists in first anesthetizing male guinea pigs weighing 350 to 400 g by intraperitoneal (i.p.) injection of a sterile and isotonic solution containing 25% (w/v.) of ethyl carbamate on the basis of 6.0 ml/kg, and in then fitting the animals with a tracheal cannula to permit measurement of the pulmonary pressure, a cannula in the right jugular vein for the intravenous (i.v.) administration of solution, and also a cannula in the left carotid artery for qualitative observation of the blood pressure. The animals are then connected to a pump (Harvard, ref. 50-1718) in order to maintain an artificial ventilation at a frequency of 60 insufflations per minute; the intratracheal pressure is recorded by an assembly comprising a transducer, an amplifier and a recorder (Gould, respective refs.: PLOEZ, 13-4615-50 and 8188-[…]-06). Fitted in this way, the animals are left undisturbed for 10 minutes before the beginning of the actual experiment, which is carried out in different ways according to the administration route envisaged. c) intranasal-powder (In.p) administration The test product is administered via a nasal insufflation of a powder consisting of 20 mg of lactose loaded with the appropriate quantity of the test product. Before this insufflation, the artificial ventilation of the animal is momentarily stopped in order to facilitate the pulmonary penetration of the compound. […] Failing this expression, the results are expressed as a % change at the time in question and for a given concentration of the test product. […]

[3] = tested on: bronchoconstriction caused by histamine; experiment: Histamine-induced bronchoconstriction test (Konzett and Rossler), i.v. administration; details: 3.5 μmol/kg, t = 10', statistically nonsignificant
Description: as §1, §2, §3, §4, §5, §6, §7, §8, §9, §10, §11, §12, §13, §14, §15, §16, §17, §18, §19

[4] = tested on: bronchoconstriction caused by 100 μmol/kg of histamine; experiment: Histamine-induced bronchoconstriction test (Konzett and Rossler), intraduodenal (i.d.) administration; details: for ED50: Cavia porcellus
Description: as §1, §2, §3, §4, §5
In base form, the test products are suspended in a solution containing 1% w/v of carboxymethylcellulose (CMC), and, in salt form, they are dissolved in an isotonic solution before being administered via a cannula whose end is placed in the animal's duodenum.
The time schedule for the successive administrations of histamine via the i.v. route and that for the test solution via the i.d. route are identical to that described above in a).
as §12, §13, §14, §15, §16, §17, §18, §19

[5] = 10 min, t = 10', read-out: ED50, inhibition of histamine-induced bronchoconstriction, t = 10'
[6] = 20 min, t = 20', read-out: ED50, inhibition of histamine-induced bronchoconstriction, t = 20'
[7] = 0.5 h, t = 30', read-out: ED50, inhibition of histamine-induced bronchoconstriction, t = 30'
[8] = 40 min, t = 40', read-out: ED50, inhibition of histamine-induced bronchoconstriction, t = 40'
[9] = 50 min, t = 50', read-out: ED50, inhibition of histamine-induced bronchoconstriction, t = 50'
[10] = 1 h, t = 60', read-out: ED50, inhibition of histamine-induced bronchoconstriction, t = 60'
[11] = 3.5 μmol/kg, t = 20', statistically nonsignificant
[12] = 3.5 μmol/kg, t = 30', statistically nonsignificant
[13] = 3.5 μmol/kg, t = 40', statistically nonsignificant
[14] = 3.5 μmol/kg, t = 50', statistically nonsignificant
[15] = 3.5 μmol/kg, t = 60', statistically nonsignificant

SMILES | ED50 [1, 5] [µmol/kg] | ED50 [1, 6] [µmol/kg] | ED50 [1, 7] [µmol/kg] | ED50 [1, 8] [µmol/kg] | ED50 [1, 9] [µmol/kg] | ED50 [1, 10] [µmol/kg] | also measured
C=CCN(C)C(C)(CO)Cc1ccc(Cl)c(Cl)c1 (racemic) [Comparative racemate. HCl] | 3.72 | 2.11 | 1.88 | 2.07 | 2.34 | 2.22 | 
C=CCNC(C)(CO)Cc1ccc(Cl)c(Cl)c1 (racemic) [Comparative racemate] | 6.65 | 4.1 | 4.38 | 3.39 | 3.02 | 3.52 | 
CC1(C)Oc2ccc(C#N)cc2[C@H](N2CCCC2=O)[C@H]1O (relative stereo) [Cromakalim (INN), reference compound] |  |  |  |  |  |  | ED50 [2]: 1.88 µmol/kg
C=CCN(C)[C@@](C)(CO)Cc1ccc(Cl)c(Cl)c1 [Comparative distomer, (R)-(-)-N-allyl-2-methylamino-2-(3,4-dichlorobenzyl)-1-propanol, reference compound] |  |  |  |  |  |  | effect on histamine activity (in words) [1]: perceptibly though not significantly in statistical terms, a potentiating effect on histamine activity; % potentiating effect on bronchoconstriction, t = 20' [1, 11]: +18.4%; % potentiating effect on bronchoconstriction, t = 30' [1, 12]: +28.2%; % potentiating effect on bronchoconstriction, t = 40' [1, 13]: +35.4%; % potentiating effect on bronchoconstriction, t = 50' [1, 14]: +36.7%; % potentiating effect on bronchoconstriction, t = 60' [1, 15]: +41.1%; % potentiating effect on bronchoconstriction, t = 10' [3]: +6.3%; effect on histamine activity (in words) [4]: perceptibly though not significantly in statistical terms, a potentiating effect on histamine activity; % potentiating effect on bronchoconstriction, t = 10' ([4]; 3.5 μmol/kg, t = 10', statistically nonsignificant): +5.8%; % potentiating effect on bronchoconstriction, t = 20' [4, 11]: +14.6%; % potentiating effect on bronchoconstriction, t = 30' [4, 12]: +32.4%; % potentiating effect on bronchoconstriction, t = 40' [4, 13]: +44.5%; % potentiating effect on bronchoconstriction, t = 50' [4, 14]: +35.6%; % potentiating effect on bronchoconstriction, t = 60' [4, 15]: +30.0%
C=CCN[C@](C)(CO)Cc1ccc(Cl)c(Cl)c1 [Example 1, (S)-(-)-N-allyl-2-amino-2-(3,4-dichlorobenzyl)-1-propanol] | 4.89 | 2.88 | 2.54 | 2.58 | 3.17 | 3.55 | ED50 [4, 6]: 1 µmol/kg; ED50 [4, 7]: 0.78 µmol/kg; ED50 [4, 8]: 0.69 µmol/kg; ED50 [4, 9]: 1.28 µmol/kg; ED50 [4, 10]: 2.17 µmol/kg
O=C1NCC2(CCN(CCc3ccccc3)CC2)O1 [Fenspiride (INN). HCl] | 4.25 | 4.99 | 6.26 | 8.9 | 8.01 | 11 | 
